Experimental data: US9187467B2, “2-phenyl benzothiazole linked imidazole compounds as potential anticancer agents and process for the preparation thereof” (Council of Scientific and Industrial Research, priority 2012, dated 2015)
Like-named read-outs stand apart in the source and are kept apart here.

Legend:
Assay type in all cases: cell-based, human
NCI-H322M = experiment: SRB anticancer assay, non-small lung; settings: Homo sapiens, 48 h
MDA-MB-231/ATCC = experiment: SRB anticancer assay, breast; design: Log10GI50: unit not given here; settings: for GI50: Homo sapiens, MDA-MB-231, 48 h, 48 h, read-out: GI50
KM12 = experiment: SRB anticancer assay, colon; settings: Homo sapiens, KM12, 48 h
HCT-116 = experiment: SRB anticancer assay, colon; settings: Homo sapiens, HCT-116, 48 h
A549/ATCC = experiment: SRB anticancer assay, non-small lung; design: Log10GI50: unit not given here; settings: for GI50: Homo sapiens, 48 h
UACC-257 = experiment: SRB anticancer assay, melanoma; settings: for GI50: Homo sapiens, UACC-257, 48 h
SNB-19 = experiment: SRB anticancer assay, CNS; design: Log10GI50: unit not given here; settings: for GI50: Homo sapiens, SNB-19, 48 h
SN12C = experiment: SRB anticancer assay, renal; design: Log10GI50: unit not given here; settings: for GI50: Homo sapiens, 48 h
Breast cancer cell lines = experiment: SRB anticancer assay, panel result; settings: for mean graph midpoint value (MG_MID) of log10 TGI: total inhibition of net cell growth; for CC50 / GI50: Homo sapiens; for CC50: 50% net cell death, read-out: mean graph midpoint value (MG_MID) of Log10 LC50 (converted)
Protocol: The compounds were evaluated for anticancer activity against sixty human cancer cells derived from nine cancer types (leukemia cell line, non-small-cell lung cell line, colon cell line, CNS cell line, melanoma cell line, ovarian cell line, prostate cell line, renal cancer cell line and breast cancer cell line) as shown in Table 1. For each compound, dose response curves for each cell line were measured at a minimum of five concentrations at 10 fold dilutions. A protocol of 48 h continuous drug exposure was used and a sulforhodamine B (SRB) protein assay was used to estimate cell viability or growth.

SK-MEL-5 = experiment: SRB anticancer assay, melanoma; settings: Homo sapiens, SK-MEL-5, 48 h
MCF7 = experiment: SRB anticancer assay, breast; settings: Homo sapiens, MCF7, 48 h
NCI-H23 = experiment: SRB anticancer assay, non-small lung; settings: for GI50: Homo sapiens, NCI-H23, 48 h
OVCAR-4 = experiment: SRB anticancer assay, ovarian; settings: Homo sapiens, OVCAR-4, 48 h
K-562 = experiment: SRB anticancer assay, leukemia; design: Log10GI50: unit not given here; settings: for GI50: Homo sapiens, K562, K-562, 48 h
HS 578T = experiment: SRB anticancer assay, breast; design: Log10GI50: unit not given here; settings: for GI50: Homo sapiens, 48 h
OVCAR-3 = experiment: SRB anticancer assay, ovarian; design: Log10GI50: unit not given here; settings: for GI50: Homo sapiens, OVCAR-3, 48 h
SF-295 = experiment: SRB anticancer assay, CNS; design: Log10GI50: unit not given here; settings: for GI50: Homo sapiens, SF-295, 48 h
SNB-75 = experiment: SRB anticancer assay, CNS; design: Log10GI50: unit not given here; settings: for GI50: Homo sapiens, SNB-75, 48 h
OVCAR-5 = experiment: SRB anticancer assay, ovarian; settings: Homo sapiens, OVCAR-5, 48 h
SK-OV-3 = experiment: SRB anticancer assay, ovarian; settings: Homo sapiens, SK-OV-3, 48 h
HT29 = experiment: SRB anticancer assay, colon; settings: Homo sapiens, HT-29; HT29, 48 h
NCI-H460 = experiment: SRB anticancer assay, non-small lung; settings: Homo sapiens, NCI-H460, 48 h
A498 = experiment: SRB anticancer assay, renal; design: Log10GI50: unit not given here; settings: for GI50: Homo sapiens, A498, 48 h
SF-268 = experiment: SRB anticancer assay, CNS; design: Log10GI50: unit not given here; settings: for GI50: Homo sapiens, SF-268, 48 h
MALME-3M = experiment: SRB anticancer assay, melanoma; design: Log10GI50: unit not given here; settings: for GI50: Homo sapiens, Malme-3M, 48 h
RXF 393 = experiment: SRB anticancer assay, renal; design: Log10GI50: unit not given here
SK-MEL-28 = experiment: SRB anticancer assay, melanoma; design: Log10GI50: unit not given here; settings: for GI50: Homo sapiens, SK-MEL-28, 48 h
786-0 = experiment: SRB anticancer assay, renal; settings: for GI50: Homo sapiens, 786-0, 48 h
SR = experiment: SRB anticancer assay, leukemia; settings: Homo sapiens, 48 h
OVCAR-8 = experiment: SRB anticancer assay, ovarian; design: Log10GI50: unit not given here; settings: for GI50: Homo sapiens, OVCAR-8, 48 h
DU-145 = experiment: SRB anticancer assay, prostate; design: Log10GI50: unit not given here; settings: for GI50: Homo sapiens, DU-145, 48 h
SK-MEL-2 = experiment: SRB anticancer assay, melanoma; settings: for GI50: Homo sapiens, SK-MEL-2, 48 h
[1] = MDA-MB-231/ATCC (row head MDA-MB-)
[2] = Breast panel, read-out: mean graph midpoint value (MG_MID) of Log10 GI50 (converted)
[3] = six breast cancer cell lines, exposure at least 48 h, read-out: GI50, range over the panel

COc1cc(OC)cc(-c2cncn2-c2ccc(-c3nc4cc(OC)c(OC)c(OC)c4s3)cc2)c1 [Compound 7d, 2-(4-(5-(3,5-Dimethoxyphenyl)-1H-imidazol-1-yl)phenyl)-5,6,7-trimethoxybenzo[d]thiazole]
GI50 (NCI-H322M): 86.5 µM | GI50 (MDA-MB-231/ATCC; [1]): 19.2 µM | GI50 (MDA-MB-231/ATCC; row head printed 231/ATCC (second line of MDA-MB-231/ATCC)): 20.9 µM | Log10GI50 (MDA-MB-231/ATCC; MDA-MB-231/ATCC, present compounds): −4.72 | GI50 (KM12): 5.54 µM | GI50 (HCT-116): 3.76 µM | GI50 (A549/ATCC): 5.59 µM | Log10GI50 (A549/ATCC; present compounds): −5.25 | GI50 (UACC-257): 20.5 µM | Log10GI50 (UACC-257; UACC-257, present compounds): −4.69 log10(M) | GI50 (SNB-19): 19.7 µM | Log10GI50 (SNB-19; SNB-19, present compounds): −4.70 | GI50 (SN12C): 31.9 µM | Log10GI50 (SN12C; present compounds): −4.50 | mean graph midpoint value (MG_MID) of log10 TGI (Breast cancer cell lines; Breast panel): >−4.0 | CC50 (Breast cancer cell lines; Breast panel): > 100 µM | GI50 (Breast cancer cell lines; [2]): 9.12 µM | GI50 (Breast cancer cell lines; [3]): 4.02 to 20.9 µM | GI50 (SK-MEL-5): 2.85 µM | GI50 (MCF7): 4.02 µM | GI50 (NCI-H23): 9.56 µM | Log10GI50 (NCI-H23; NCI-H23, present compounds): −5.02 log10(M) | GI50 (OVCAR-4): 6.67 µM | GI50 (K-562): 3.57 µM | Log10GI50 (K-562; K-562, present compounds): −5.45 | GI50 (HS 578T): 6.71 µM | Log10GI50 (HS 578T; present compounds): −4.68 | GI50 (OVCAR-3): 6.07 µM | Log10GI50 (OVCAR-3; OVCAR-3, present compounds): −5.22 | GI50 (SF-295): 3.64 µM | Log10GI50 (SF-295; SF-295, present compounds): −5.44 | GI50 (SNB-75): 15 µM | Log10GI50 (SNB-75; SNB-75, present compounds): −4.82 | GI50 (OVCAR-5): > 100 µM | GI50 (SK-OV-3): 49.9 µM | GI50 (HT29): 8.33 µM | GI50 (NCI-H460): 7.46 µM | Log10GI50 (A498; A498, present compounds): >−4.0 | GI50 (A498): > 100000 nM | GI50 (SF-268): 22.1 µM | Log10GI50 (SF-268; SF-268, present compounds): −4.66 | GI50 (MALME-3M): 9.58 µM | Log10GI50 (MALME-3M; MALME-3M, present compounds): −5.02 | GI50 (RXF 393; Homo sapiens, RXF 393, 48 h): 30.2 µM | Log10GI50 (RXF 393; RXF 393, present compounds): −4.52 | GI50 (SK-MEL-28): 31.6 µM | Log10GI50 (SK-MEL-28; SK-MEL-28, present compounds): −4.50 | Log10GI50 (786-0; 786-0, present compounds): −4.99 log10 M | GI50 (786-0): 10.3 µM | GI50 (SR): 7.14 µM | GI50 (OVCAR-8): 13.4 µM | Log10GI50 (OVCAR-8; OVCAR-8, present compounds): −4.87 | Log10GI50 (DU-145; DU-145, present compounds): −4.51 | GI50 (DU-145): 31.1 µM | GI50 (SK-MEL-2): 6.16 µM | Log10GI50 (SK-MEL-2; SK-MEL-2, present compounds): −5.21 M

COc1cc(OC)c2sc(-c3ccc(-n4cncc4-c4ccc(OC)c(OC)c4)cc3)nc2c1 [Compound 6e, 2-(4-(5-(3,4-Dimethoxyphenyl)-1H-imidazol-1-yl)phenyl)-5,7-dimethoxybenzo[d]thiazole]
GI50 (NCI-H322M): > 100 µM | GI50 (MDA-MB-231/ATCC; [1]): 28.4 µM | GI50 (KM12): 6.8 µM | GI50 (HCT-116): 5.48 µM | GI50 (A549/ATCC): 41.8 µM | GI50 (UACC-257): > 100 µM | GI50 (SNB-19): > 100 µM | GI50 (SN12C): > 100 µM | mean graph midpoint value (MG_MID) of log10 TGI (Breast cancer cell lines; Breast panel): >−4.0 | CC50 (Breast cancer cell lines; Breast panel): > 100 µM | GI50 (Breast cancer cell lines; [2]): 7.41 µM | GI50 (Breast cancer cell lines; [3]): 3.78 to 28.4 µM | GI50 (SK-MEL-5): 3.61 µM | GI50 (MCF7): 5.36 µM | GI50 (NCI-H23): > 100 µM | GI50 (OVCAR-4): 4.21 µM | GI50 (K-562): 5.88 µM | GI50 (HS 578T): 9.12 µM | GI50 (OVCAR-3): 3.85 µM | GI50 (SF-295): 7 µM | GI50 (SNB-75): 7.21 µM | GI50 (OVCAR-5): > 100 µM | GI50 (SK-OV-3): > 100 µM | GI50 (HT29): 7.13 µM | GI50 (NCI-H460): 6.06 µM | GI50 (A498): 2150 nM | GI50 (SF-268): 9.96 µM | GI50 (MALME-3M): 59.8 µM | GI50 (SK-MEL-28): > 100 µM | GI50 (786-0): > 100 µM | GI50 (SR): 3.03 µM | GI50 (OVCAR-8): 21.2 µM | GI50 (DU-145): 27.9 µM | GI50 (SK-MEL-2): 41.4 µM
